Where two headings read alike, the source gives them in different places.
Experiments:
BRM = target: T1, BRM (Homo sapiens, UniProt P51531); assay: ATPase catalytic activity of BRM, ADP-Glo in vitro biochemical assay; conditions: ATPase catalytic activity, 30 nM BRM, 400 μM ATP
T1 construct: made in house; host or cells: High Five insect cells

BRG-1 = target: T2, BRG-1 (Homo sapiens, UniProt P51532); assay: ATPase catalytic activity of BRG-1, ADP-Glo in vitro biochemical assay; conditions: ATPase catalytic activity, 30 nM BRG-1, 400 μM ATP
T2 construct: made in house; host or cells: High Five insect cells
T2 sequence (P51532 whole entry): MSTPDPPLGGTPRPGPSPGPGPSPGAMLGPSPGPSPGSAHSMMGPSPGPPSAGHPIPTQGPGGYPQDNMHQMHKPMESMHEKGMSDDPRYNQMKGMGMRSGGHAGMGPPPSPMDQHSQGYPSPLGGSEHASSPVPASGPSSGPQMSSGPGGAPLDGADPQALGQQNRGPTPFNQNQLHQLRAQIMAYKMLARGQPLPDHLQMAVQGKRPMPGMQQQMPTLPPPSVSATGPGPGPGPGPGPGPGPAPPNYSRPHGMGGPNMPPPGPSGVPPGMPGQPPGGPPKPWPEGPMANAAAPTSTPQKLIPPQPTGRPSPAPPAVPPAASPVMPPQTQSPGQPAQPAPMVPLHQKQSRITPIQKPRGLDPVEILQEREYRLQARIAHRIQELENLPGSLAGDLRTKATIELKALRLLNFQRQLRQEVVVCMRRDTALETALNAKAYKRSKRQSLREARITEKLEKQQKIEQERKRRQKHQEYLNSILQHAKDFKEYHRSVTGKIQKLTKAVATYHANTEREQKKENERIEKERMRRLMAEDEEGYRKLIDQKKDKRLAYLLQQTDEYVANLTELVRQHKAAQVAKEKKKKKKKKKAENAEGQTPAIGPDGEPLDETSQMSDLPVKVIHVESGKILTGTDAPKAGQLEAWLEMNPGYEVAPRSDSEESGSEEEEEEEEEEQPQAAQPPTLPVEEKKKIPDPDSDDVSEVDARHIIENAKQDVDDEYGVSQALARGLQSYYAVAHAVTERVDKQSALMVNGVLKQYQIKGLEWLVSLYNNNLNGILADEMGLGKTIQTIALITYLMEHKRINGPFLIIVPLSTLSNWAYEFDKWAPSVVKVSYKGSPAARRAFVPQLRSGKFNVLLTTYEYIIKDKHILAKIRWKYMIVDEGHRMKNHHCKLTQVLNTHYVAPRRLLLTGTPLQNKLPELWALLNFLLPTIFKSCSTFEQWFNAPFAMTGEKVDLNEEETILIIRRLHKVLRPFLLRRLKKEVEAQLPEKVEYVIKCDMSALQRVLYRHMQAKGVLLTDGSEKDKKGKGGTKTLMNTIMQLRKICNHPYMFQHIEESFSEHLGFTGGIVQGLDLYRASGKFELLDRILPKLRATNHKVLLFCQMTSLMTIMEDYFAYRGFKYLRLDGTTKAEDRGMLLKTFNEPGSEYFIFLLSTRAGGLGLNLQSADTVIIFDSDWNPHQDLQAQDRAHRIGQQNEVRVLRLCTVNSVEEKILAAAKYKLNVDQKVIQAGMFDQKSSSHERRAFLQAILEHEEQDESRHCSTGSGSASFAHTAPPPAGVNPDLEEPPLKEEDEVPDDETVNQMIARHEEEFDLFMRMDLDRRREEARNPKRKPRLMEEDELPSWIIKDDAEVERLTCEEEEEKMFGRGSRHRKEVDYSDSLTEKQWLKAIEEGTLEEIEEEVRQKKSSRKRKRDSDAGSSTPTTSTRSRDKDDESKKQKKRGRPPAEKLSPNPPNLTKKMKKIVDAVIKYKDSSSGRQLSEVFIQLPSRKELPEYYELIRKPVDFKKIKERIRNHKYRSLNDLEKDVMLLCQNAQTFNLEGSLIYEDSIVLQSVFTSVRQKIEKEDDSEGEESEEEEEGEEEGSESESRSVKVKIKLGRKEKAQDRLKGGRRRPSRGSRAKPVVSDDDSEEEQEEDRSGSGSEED

T1 sequence (P51531 whole entry): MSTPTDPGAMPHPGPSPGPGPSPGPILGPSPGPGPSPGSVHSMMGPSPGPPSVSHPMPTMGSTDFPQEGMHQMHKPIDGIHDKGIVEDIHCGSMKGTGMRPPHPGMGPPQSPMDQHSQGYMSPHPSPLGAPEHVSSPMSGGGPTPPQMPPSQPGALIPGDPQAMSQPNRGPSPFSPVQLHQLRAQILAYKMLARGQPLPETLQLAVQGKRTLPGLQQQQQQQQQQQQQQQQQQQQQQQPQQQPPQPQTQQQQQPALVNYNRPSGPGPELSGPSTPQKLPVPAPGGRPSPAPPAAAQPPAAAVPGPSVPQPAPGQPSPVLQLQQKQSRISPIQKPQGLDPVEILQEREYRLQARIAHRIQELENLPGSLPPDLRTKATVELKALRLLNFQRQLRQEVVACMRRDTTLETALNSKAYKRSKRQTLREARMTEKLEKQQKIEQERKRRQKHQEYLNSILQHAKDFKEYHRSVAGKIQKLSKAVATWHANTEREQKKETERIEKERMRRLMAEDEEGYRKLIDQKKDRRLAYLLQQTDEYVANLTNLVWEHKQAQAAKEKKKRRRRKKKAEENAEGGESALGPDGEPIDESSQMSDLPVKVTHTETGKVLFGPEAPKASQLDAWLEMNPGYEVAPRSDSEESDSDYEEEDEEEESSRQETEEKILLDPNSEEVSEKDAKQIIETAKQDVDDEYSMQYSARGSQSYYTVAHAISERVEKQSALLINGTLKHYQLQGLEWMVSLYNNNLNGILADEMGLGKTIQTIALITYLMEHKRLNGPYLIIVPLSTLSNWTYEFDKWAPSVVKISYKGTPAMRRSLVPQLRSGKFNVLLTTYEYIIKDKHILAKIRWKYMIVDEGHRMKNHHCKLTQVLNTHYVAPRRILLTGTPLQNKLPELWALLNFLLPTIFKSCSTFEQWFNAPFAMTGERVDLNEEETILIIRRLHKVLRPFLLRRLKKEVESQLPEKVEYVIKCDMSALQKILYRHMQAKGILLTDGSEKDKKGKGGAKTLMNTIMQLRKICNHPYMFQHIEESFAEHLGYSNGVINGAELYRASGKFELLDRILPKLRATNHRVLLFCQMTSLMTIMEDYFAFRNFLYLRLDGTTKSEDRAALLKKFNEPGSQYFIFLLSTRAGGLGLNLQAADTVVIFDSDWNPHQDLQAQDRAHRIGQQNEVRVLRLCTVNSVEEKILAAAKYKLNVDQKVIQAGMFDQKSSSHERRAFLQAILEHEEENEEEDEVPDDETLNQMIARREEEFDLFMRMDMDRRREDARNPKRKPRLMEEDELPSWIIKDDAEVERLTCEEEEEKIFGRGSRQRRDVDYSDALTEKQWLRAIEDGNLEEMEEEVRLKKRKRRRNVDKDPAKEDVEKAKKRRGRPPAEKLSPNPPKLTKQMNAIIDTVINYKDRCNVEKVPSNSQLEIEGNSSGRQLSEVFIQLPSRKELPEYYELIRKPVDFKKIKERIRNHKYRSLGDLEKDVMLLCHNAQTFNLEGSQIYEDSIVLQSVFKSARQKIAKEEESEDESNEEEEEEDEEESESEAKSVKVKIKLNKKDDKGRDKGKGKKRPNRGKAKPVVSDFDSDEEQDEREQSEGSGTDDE

| SMILES | IC50 (BRM; read-out: BRM IP50) | IC50 (BRG-1; read-out: BRG1 IP50) | IC50 (BRM; read-out: BRM IP50 (μM)*) | IC50 (BRG-1; read-out: BRG1 IP50 (μM)*) |
| --- | --- | --- | --- | --- |
| CN1CCOCc2ccc(-c3csc(NC(=O)CNC(=O)c4ccn(S(C)(=O)=O)c4)n3)cc21 [Compound 259] | – | – | > 0.01 µM | > 0.01 µM |
| CS(=O)(=O)n1ccc(C(=O)NCC(=O)Nc2nc(-c3cccc(OCF)c3)cs2)c1 [Compound 266] | – | – | > 0.01 µM | > 0.01 µM |
| CC[C@@H]1CN(c2cccc(-c3csc(NC(=O)CNC(=O)c4ccn(S(C)(=O)=O)c4)n3)c2)CCO1 [Compound 237] | – | – | > 0.01 µM | > 0.01 µM |
| CS(=O)(=O)n1ccc(C(=O)NCC(=O)Nc2nc(-c3cccc(OC(F)(F)F)c3)cs2)c1 [Compound 276] | – | – | > 0.01 µM | > 0.01 µM |
| CC(C)(C)n1ccc(C(=O)NCC(=O)Nc2nc(-c3cccc(-c4ccncc4)c3)cs2)c1 [Compound 41, 1-(tert-butyl)-N-(2-oxo-2-((4-(3-(pyridin-4-yl)phenyl)thiazol-2-yl)amino)ethyl)-1H-pyrrole-3-carboxamide] | – | – | < 0.01 µM | > 0.01 µM |
| COC[C@H](NC(=O)c1ccn(C(C)(C)C)n1)C(=O)Nc1nc(-c2ccc3ccn(C)c(=O)c3c2)cs1 [Compound 345] | – | – | > 0.1 µM | > 0.1 µM |
| CC1(n2ccc(C(=O)NCC(=O)Nc3nc(-c4ccc5c(c4)OCC5)cs3)c2)COC1 [Compound 271] | – | – | > 0.01 µM | > 0.1 µM |
| COC1(C)CCN(c2cccc(-c3csc(NC(=O)CNC(=O)c4ccn(S(C)(=O)=O)c4)n3)c2)CC1 [Compound 96, N-(2-((4-(3-(4-methoxy-4-methylpiperidin-1-yl)phenyl)thiazol-2-yl)amino)-2-oxoethyl)-1-(methylsulfonyl)-1H-pyrrole-3-carboxamide] | – | – | > 0.01 µM | > 0.1 µM |
| Cn1ccc(-c2cccc(-c3csc(NC(=O)CNC(=O)c4ccn(C(C)(C)CO)c4)n3)c2)n1 [Compound 30, 1-(1-hydroxy-2-methylpropan-2-yl)-N-(2-((4-(3-(1-methyl-1H-pyrazol-3-yl)phenyl)thiazol-2-yl)amino)-2-oxoethyl)-1H-pyrrole-3-carboxamide] | – | – | > 0.01 µM | > 0.01 µM |
| CS(=O)(=O)n1ccc(C(=O)NCC(=O)Nc2nc(-c3cccc(N4CC5(COC5)C4)c3)cs2)c1 [Compound 101, N-(2-((4-(3-(2-oxa-6-azaspiro[3.3]heptan-6-yl)phenyl)thiazol-2-yl)amino)-2-oxoethyl)-1-(methylsulfonyl)-1H-pyrrole-3-carboxamide] | – | – | < 0.01 µM | < 0.01 µM |
| C[C@@H]1CN(c2cccc(-c3nc(NC(=O)CNC(=O)c4ccn(S(C)(=O)=O)c4)sc3F)c2)C[C@H](C)O1 [Compound 181, N-[2-[[4-[3-[(cis)-2,6-dimethylmorpholin-4-yl]phenyl]-5-fluoro-thiazol-2-yl]amino]-2-oxo-ethyl]-1-methylsulfonyl-pyrrole-3-carboxamide] | – | – | > 0.01 µM | > 0.01 µM |
| O=C(CNC(=O)c1ccn(C2CCNCC2)c1)Nc1nc(-c2cccc(-c3ccncc3)c2)cs1 [Compound 39, N-(2-oxo-2-((4-(3-(pyridin-4-yl)phenyl)thiazol-2-yl)amino)ethyl)-1-(piperidin-4-yl)-1H-pyrrole-3-carboxamide] | – | – | > 1 µM | > 1 µM |
| CS(=O)(=O)n1ccc(C(=O)NCC(=O)Nc2nc(-c3cccc(OC[C@@H]4CCOC4)c3)cs2)c1 [Compound 304, 1-methylsulfonyl-N-[2-oxo-2-[[4-[3-[[(3R)-tetrahydrofuran-3-yl]methoxy]phenyl]thiazol-2-yl]amino]ethyl]pyrrole-3-carboxamide] | – | – | > 0.01 µM | > 0.01 µM |
| COCC1CCN(c2cccc(-c3csc(NC(=O)CNC(=O)c4ccn(S(C)(=O)=O)c4)n3)c2)CC1 [Compound 91, N-(2-((4-(3-(4-(methoxymethyl)piperidin-1-yl)phenyl)thiazol-2-yl)amino)-2-oxoethyl)-1-(methylsulfonyl)-1H-pyrrole-3-carboxamide] | – | – | > 0.01 µM | > 0.1 µM |
| C[C@@H]1CN(c2nccc(-c3csc(NC(=O)CNC(=O)c4ccn(C5(C)COC5)c4)n3)n2)C[C@H](C)O1 [Compound 324] | – | – | > 0.01 µM | > 0.01 µM |
| CN(C)C(=O)Cn1ccc(-c2cccc(-c3csc(NC(=O)CNC(=O)c4ccn(S(C)(=O)=O)c4)n3)c2)n1 [Compound 189] | – | – | < 0.01 µM | < 0.01 µM |
| Cn1ccc2ccc(-c3csc(NC(=O)CNC(=O)c4ccn(C(C)(C)C)c4)n3)cc2c1=O [Compound 123, 1-(tert-butyl)-N-(2-((4-(2-methyl-1-oxo-1,2-dihydroisoquinolin-7-yl)thiazol-2-yl)amino)-2-oxoethyl)-1H-pyrrole-3-carboxamide] | – | – | < 0.01 µM | > 0.01 µM |
| C[C@H]1C[C@H](C)CN(c2cccc(-c3csc(NC(=O)CNC(=O)c4ccn(S(C)(=O)=O)c4)n3)c2)C1 (racemic) [Compound 187] | – | – | > 0.01 µM | > 0.01 µM |
| CO[C@@H]1CN(c2cccc(-c3csc(NC(=O)CNC(=O)c4ccn(S(C)(=O)=O)c4)n3)c2)C[C@H]1F [Compound 168] | – | – | > 0.01 µM | > 0.01 µM |
| CC(C)(C)c1cccc(-c2csc(NC(=O)CNC(=O)c3ccn(S(C)(=O)=O)c3)n2)c1 [Compound 140, N-(2-((4-(3-(tert-butyl)phenyl)thiazol-2-yl)amino)-2-oxoethyl)-1-(methylsulfonyl)-1H-pyrrole-3-carboxamide] | – | – | > 0.1 µM | > 0.1 µM |

Other lines, results leading:

| IC50 (BRM; read-out: BRM IP50) | IC50 (BRG-1; read-out: BRG1 IP50) | IC50 (BRM; read-out: BRM IP50 (μM)*) | IC50 (BRG-1; read-out: BRG1 IP50 (μM)*) | SMILES |
| --- | --- | --- | --- | --- |
| < 0.01 µM | < 0.01 µM | – | – | C[C@@H]1CN(c2cccc(-c3csc(NC(=O)CNC(=O)c4ccn(C(C)(C)C(F)F)c4)n3)n2)C[C@H](C)O1 [Compound 748] |
| > 0.01 µM | > 0.1 µM | – | – | C[C@H](NC(=O)c1ccn(C2(C#N)CC2)c1)C(=O)Nc1nc(-c2cccc(-c3ccn(C)n3)c2)cs1 [Compound 588] |
| – | – | > 0.01 µM | > 0.01 µM | COC[C@H](NC(=O)c1ccn(S(C)(=O)=O)c1)C(=O)Nc1nc(-c2cccc(-c3cnn(C)c3)c2)cs1 [Compound 360] |
| > 0.01 µM | > 0.01 µM | – | – | CC(C)(C)n1ccc(C(=O)NCC(=O)Nc2nc(-c3cccc(N4CCC5(CC5)C4)n3)cs2)c1 [Compound 634] |
| > 0.01 µM | > 0.01 µM | – | – | CS(=O)(=O)n1ccc(C(=O)NCC(=O)Nc2nc(-c3cccc([C@H]4CC[C@@H](O)CC4)c3)cs2)c1 [Compound 387, N-(2-((4-(3-((cis)-4-hydroxycyclohexyl)phenyl)thiazol-2-yl)amino)-2-oxoethyl)-1-(methylsulfonyl)-1H-pyrrole-3-carboxamide] |
| > 0.01 µM | > 0.01 µM | – | – | N#CC1(n2ccc(C(=O)NCC(=O)Nc3nc(-c4cccc(N5CCC5)n4)cs3)c2)COC1 [Compound 595] |
| > 0.01 µM | > 0.1 µM | – | – | COC[C@H](NC(=O)c1ccn(S(C)(=O)=O)c1)C(=O)Nc1nc(-c2ccc(F)c(OC3CC3)c2F)cs1 [Compound 613] |
| > 0.1 µM | > 0.1 µM | – | – | CC(C)(C)n1ccc(C(=O)NCC(=O)Nc2nc(-c3cccc(N4CCC5(CCOCC5)C4)n3)cs2)c1 [Compound 624] |
| < 0.01 µM | > 0.01 µM | – | – | CC(C)(C)n1ccc(C(=O)NCC(=O)Nc2nc(-c3cccc(N4CC[C@@H]5COC[C@H]5C4)n3)cs2)c1 [Compound 727] |
| > 0.1 µM | > 0.1 µM | – | – | Cn1ccc2ccc(-c3csc(NC(=O)CNC(=O)c4ncn(C56CC(C5)C6)n4)n3)cc2c1=O [Compound 782] |
| > 0.1 µM | > 0.1 µM | – | – | CC(C)(C)n1ccc(C(=O)NCC(=O)Nc2nc(-c3cccc(N4C[C@@H]5OCC(F)(F)[C@@H]5C4)n3)cs2)c1 [Compound 661] |
| > 0.01 µM | > 0.01 µM | – | – | COC[C@H](NC(=O)c1ccn(C2(C#N)CC2)c1)C(=O)Nc1nc(-c2cccc(-c3ccn(C)n3)c2)cs1 [Compound 568] |
| < 0.01 µM | < 0.01 µM | – | – | COC[C@H](NC(=O)c1ccn(S(C)(=O)=O)c1)C(=O)Nc1nc(-c2cccc(-c3ccnc(Cl)c3)c2)cs1 [Compound 438] |
| < 0.01 µM | < 0.01 µM | – | – | CS(=O)(=O)n1ccc(C(=O)NCC(=O)Nc2nc(-c3cccc(N4CC[C@@H]5OCC[C@H]5C4)n3)cs2)c1 [Compound 766] |
| > 0.01 µM | > 0.01 µM | – | – | CS(=O)(=O)n1ccc(C(=O)NCC(=O)Nc2nc(-c3ccc4c(c3)OCO4)cs2)c1 [Compound 574] |
| > 0.01 µM | > 0.01 µM | – | – | COC[C@H](NC(=O)c1ccn(S(C)(=O)=O)c1)C(=O)Nc1nc(-c2cc(F)cc(C#N)c2)cs1 [Compound 714] |
| < 0.01 µM | > 0.01 µM | – | – | N#CC1(n2ccc(C(=O)NCC(=O)Nc3nc(-c4cccc(N5CCC5)c4)cs3)c2)COC1 [Compound 601] |
| < 0.01 µM | > 0.01 µM | – | – | N#CC1(n2ccc(C(=O)NCC(=O)Nc3nc(-c4cccc(N5CCC5)c4F)cs3)c2)CC1 [Compound 524] |
| > 0.01 µM | > 0.01 µM | – | – | CS(=O)(=O)n1ccc(C(=O)NCC(=O)Nc2nc(-c3ccc4c(c3)N(CC(F)F)CC4)cs2)c1 [Compound 487] |
| > 0.01 µM | > 0.01 µM | – | – | CC(C)(C)n1ccc(C(=O)NCC(=O)Nc2nc(-c3cccc(N4CCC(OC(F)F)C4)n3)cs2)c1 (stereo not shown) [Compound 633] |
| > 0.01 µM | > 0.1 µM | – | – | C[C@@H]1CN(c2cccc(-c3csc(NC(=O)CNC(=O)c4cn(C(C)(C)CO)cn4)n3)n2)C[C@H](C)O1 [Compound 778] |
| > 0.01 µM | > 0.1 µM | – | – | CC(C)(C)n1ccc(C(=O)NCC(=O)Nc2nc(-c3cccc(N4CCn5ccnc5C4)n3)cs2)c1 [Compound 657] |
| < 0.01 µM | < 0.01 µM | – | – | CN[C@@H]1CCN(c2cccc(-c3csc(NC(=O)CNC(=O)c4ccn(S(C)(=O)=O)c4)n3)n2)CC1(F)F [Compound 763, N-[2-[[4-[6-[(4R)-3,3-difluoro-4-(methylamino)-1-piperidyl]-2-pyridyl]thiazol-2-yl]amino]-2-oxo-ethyl]-1-methylsulfonyl-pyrrole-3-carboxamide] |
| < 0.01 µM | < 0.01 µM | – | – | COC[C@H](NC(=O)c1ccn(S(C)(=O)=O)c1)C(=O)Nc1nc(-c2cccc(N3CC[C@@H]4COC[C@H]4C3)n2)cs1 [Compound 773] |

From patent publication US20230079819A1, “COMPOUNDS AND USES THEREOF” (Foghorn Therapeutics Inc., priority 2019, published 2023)
